Measurements reported in PMC4105567, “Aurora Kinases as Druggable Targets in Pediatric Leukemia: Heterogeneity in Target Modulation Activities and Cytotoxicity by Diverse Novel Therapeutic Agents” (PLoS ONE, 2014).
Read-outs that look alike come from different tables or passages of the source.

Legend:
[1] = system: Patient #1 B-ALL primary leukemia cells; assay: Cytotoxicity assay, primary sample Patient #1; type: cell-based, human; conditions: four days in culture, Alamar blue assay or automated microscopy, one complete study
Procedure: (§1) These include B-ALL (Patient #1), relapsed AML (Patient #2), AML/CML (Patient #3), infant ALL (Patient #4), and initial ALL presenting with secondary AML (Patient #5). […] The diluted sample was then layered on a Ficoll-Paque (GE Healthcare, Piscataway, New Jersey) gradient at a 1∶2 ratio of Ficoll to diluted sample. Samples were then centrifuged 1800 rpm for 20 minutes at room temperature. The buffy coat was removed with a pipette and transferred to a new centrifuge tube and diluted with PBS. After an additional centrifugation at 1200 rpm, the white blood cell pellet was washed with PBS and centrifuged one last time. Cells were re-suspended in Opti-MEM and viable cells were counted using trypan blue (Invitrogen, Life Technologies Corporation, Burlington, Ontario) exclusion on a haemocytometer. An identical protocol was followed for the isolation of white blood cells, referred to as “normal lymphocytes” in the following paragraphs, from healthy volunteers. Samples grown in culture for up to six months were cultured in Opti-MEM medium supplemented with 10% heat inactivated FBS, penicillin/streptomycin and 2-mercaptoethanol.
(§2) For cytotoxicity profiling of Aurora kinase inhibitors against leukemia cell lines, inhibitors or vehicle control (DMSO, Sigma-Aldrich) were diluted in 100 µl of Opti-MEM per well in 96 well plates (Grenier Bio-One, Monroe, North Carolina) in triplicate at final concentrations ranging from 1×10^−6 to 10 µM. 1×10^4 cells per well were seeded and plates were incubated for 4 days. Following incubation for 4 days, cell survival was quantified by Alamar blue assay (Invitrogen) or automated inverted microscopy using the Celigo Cell Cytometer (Cyntellect, San Diego, California). […] During this period of incubation, the absorbance at 570–620 nm was measured (Opsys MR Plate Reader, Dynex Technologies, Chantilly, Virginia) at various time points, depending on the cell line or sample. Percent survival was calculated by comparing the absorbance ratio of the test well to the control well multiplied by 100%, as indicated in the following formula: […]
(§3) For automated inverted microscopy, the number of cells in each well was determined using the direct cell counting application as described previously. Briefly, following adjustment of image acquisition settings for bright-field imaging, the wells containing cells and appropriate dilutions of inhibitors were individually scanned. Based on these images, analysis parameters, including intensity threshold and cell diameter, were modified for optimal inclusion of viable cells in treated and control wells. These parameters were applied for subsequent replicates involving the same leukemia cell line or sample. The percent survival was then calculated as a ratio of the number of cells in treated wells to the number of cells in control wells multiplied by 100%. Given that Aurora kinase inhibitors interfere with cytokinesis, cells that are committed to death may still contain enlarging but intact cytoplasmic content before the eventual loss of cytoplasmic membrane integrity. The accuracy of Alamar blue assay may be, in theory, affected by the timing of these events.

Normal Lymphocytes = assay: Cytotoxicity assay, normal lymphocytes; type: cell-based, human; conditions: normal lymphocytes (control for non-leukemia cytotoxicity), four days in culture, ± SD, three experiments
Procedure: as §1, §2, §3

B1 B-ALL cell line = assay: Cytotoxicity assay, B1; type: cell-based, human; conditions: four days in culture, Alamar blue assay or automated microscopy, ± SD, three experiments
Procedure: (§4) Cell lines were cultured in Opti-MEM medium (Gibco, Life Technologies Corporation, Burlington, Ontario) supplemented with 10% heat inactivated fetal bovine serum (FBS) (Gibco), 100 units/ml penicillin and 100 units/ml streptomycin (Gibco) and 0.05 mM 2-mercaptoethanol (Sigma-Aldrich, Oakville, Ontario) in T25 flasks (Nalge Nunc, Rochester, New York) or T75 flasks (Corning Incorporated, Corning, New York). All cell cultures were maintained at 37°C in a humidified incubator with 5% CO2.
as §2, §3

NB4 APML cell line = assay: Cytotoxicity assay, NB4; type: cell-based, human; conditions: four days in culture, Alamar blue assay or automated microscopy, ± SD, three experiments
Procedure: as §4, §2, §3

[2] = system: Patient #4 infant leukemia primary cells; assay: Cytotoxicity assay, primary sample Patient #4; type: cell-based, human; conditions: four days in culture, Alamar blue assay or automated microscopy, one complete study
Procedure: as §1, §2, §3

KOPN8 B-ALL cell line = assay: Cytotoxicity assay, KOPN8; type: cell-based, human; conditions: four days in culture, Alamar blue assay or automated microscopy, ± SD, three experiments
Procedure: as §4, §2, §3

HL-60 RA APML cell line = assay: Cytotoxicity assay, HL-60 RA; type: cell-based, human; conditions: APML cell line HL-60 RA, four days in culture, Alamar blue assay or automated microscopy, ± SD, three experiments
Procedure: as §4, §2, §3

MV4-11 AML cell line = assay: Cytotoxicity assay, MV4-11; type: cell-based, human; conditions: AML cell line MV4-11, four days in culture, Alamar blue assay or automated microscopy, ± SD, three experiments
Procedure: as §4, §2, §3

C1 B-ALL cell line = assay: Cytotoxicity assay, C1; type: cell-based, human; conditions: four days in culture, Alamar blue assay or automated microscopy, ± SD, three experiments
Procedure: as §4, §2, §3

Molt-3 T-ALL cell line = assay: Cytotoxicity assay, Molt-3; type: cell-based, human; conditions: T-ALL cell line Molt-3, four days in culture, Alamar blue assay or automated microscopy, ± SD, three experiments
Procedure: as §4, §2, §3

Molm13 AML cell line = assay: Cytotoxicity assay, Molm13; type: cell-based, human; conditions: four days in culture, Alamar blue assay or automated microscopy, ± SD, three experiments
Procedure: as §4, §2, §3

Bone Marrow Stroma = assay: Cytotoxicity assay, bone marrow stroma; type: cell-based, human; conditions: bone marrow stroma (control for non-leukemia cytotoxicity), four days in culture, ± SD, three experiments
Procedure: as §2, §3

Nalm6 B-ALL cell line = assay: Cytotoxicity assay, Nalm6; type: cell-based, human; conditions: four days in culture, Alamar blue assay or automated microscopy, ± SD, three experiments
Procedure: as §4, §2, §3

[3] = system: Patient #2 relapsed AML primary leukemia cells; assay: Cytotoxicity assay, primary sample Patient #2; type: cell-based, human; conditions: four days in culture, Alamar blue assay or automated microscopy, one complete study
Procedure: as §1, §2, §3

[4] = system: Patient #5 ALL/AML primary leukemia cells; assay: Cytotoxicity assay, primary sample Patient #5; type: cell-based, human; conditions: read-out: IC50, Patient #5 ALL/AML
Procedure: as §1, §2, §3

[5] = system: normal cells versus leukemia cell lines; assay: Comparison of cytotoxicity IC50 values, normal cells versus leukemia cell lines; type: cell-based, human; conditions: normal lymphocytes and bone marrow stroma versus leukemia cell lines of Table 2
Procedure: as §2, §3

SEM B-ALL cell line = assay: Cytotoxicity assay, SEM; type: cell-based; conditions: Homo sapiens, 96 h, four days in culture, Alamar blue assay or automated microscopy, ± SD, three experiments
Procedure: as §4, §2, §3

HL-60 APML cell line = assay: Cytotoxicity assay, HL-60; type: cell-based, human; conditions: APML cell line HL-60, four days in culture, Alamar blue assay or automated microscopy, ± SD, three experiments
Procedure: as §4, §2, §3

CEM T-ALL cell line = assay: Cytotoxicity assay, CEM; type: cell-based, human; conditions: four days in culture, Alamar blue assay or automated microscopy, ± SD, three experiments
Procedure: as §4, §2, §3

[6] = system: Patient #3 AML/CML primary leukemia cells; assay: Cytotoxicity assay, primary sample Patient #3; type: cell-based, human; conditions: four days in culture, Alamar blue assay or automated microscopy, one complete study
Procedure: as §1, §2, §3

UOCB1 B-ALL cell line = assay: Cytotoxicity assay, UOCB1; type: cell-based, human; conditions: four days in culture, Alamar blue assay or automated microscopy, ± SD, three experiments
Procedure: as §4, §2, §3

TIB-202 AML cell line = assay: Cytotoxicity assay, TIB-202; type: cell-based, human; conditions: AML cell line TIB-202, four days in culture, Alamar blue assay or automated microscopy, ± SD, three experiments
Procedure: as §4, §2, §3

Aurora-C = conditions: read-out: Targets (IC50 Value): Aurora-C; literature values; ref [10],[40],[44]–[64] as listed per inhibitor in Table 1; cited from earlier work

COc1cc(Nc2ncc3c(n2)-c2ccc(Cl)cc2C(c2c(F)cccc2OC)=NC3)ccc1C(=O)O [MLN8237]
IC50 ([1]; Homo sapiens, 96 h): 6 nM | IC50 (Normal Lymphocytes; Homo sapiens, Lymphocyte, 96 h): 5000 ± 2000 nM | IC50 (B1 B-ALL cell line; Homo sapiens, 96 h): 4 ± 3 nM | IC50 (NB4 APML cell line; Homo sapiens, 96 h): 60 ± 8 nM | IC50 ([2]; Homo sapiens, 96 h): 3000 nM | IC50 (KOPN8 B-ALL cell line; Homo sapiens, KOPN-8, 96 h): 5 ± 2 nM | IC50 (HL-60 RA APML cell line; Homo sapiens, 96 h): 4 ± 2 nM | IC50 (MV4-11 AML cell line; Homo sapiens, 96 h): 4 ± 1 nM | IC50 (C1 B-ALL cell line; Homo sapiens, 96 h): 3 ± 1 nM | IC50 (Molt-3 T-ALL cell line; Homo sapiens, 96 h): < 0.001 nM | IC50 (Molm13 AML cell line; Homo sapiens, MOLM-13, 96 h): 4 ± 2 nM | IC50 (Bone Marrow Stroma; Homo sapiens, 96 h): > 10000 nM | IC50 (Nalm6 B-ALL cell line; Homo sapiens, NALM-6, 96 h): 6 ± 3 nM | IC50 ([3]; Homo sapiens, 96 h): 500 nM | IC50 ([4]; Homo sapiens, 96 h, primary sample, four days in culture, Alamar blue assay or automated microscopy, one complete study): 0.1 nM | IC50 values for the normal cells compared with IC50 values for the leukemia cell lines (potential therapeutic window) [5]: higher than the IC50 values for the leukemia cell lines | IC50 (SEM B-ALL cell line): 4 ± 1 nM | IC50 (HL-60 APML cell line; Homo sapiens, 96 h): 9 ± 0.9 nM | IC50 (CEM T-ALL cell line; Homo sapiens, 96 h): < 0.001 nM | IC50 ([6]; Homo sapiens, 96 h): 700 nM | IC50 (UOCB1 B-ALL cell line; Homo sapiens, UoC-B1, 96 h): 0.003 nM | IC50 (TIB-202 AML cell line; Homo sapiens, 96 h): 0.4 nM

O=C(Nc1cccc(Cl)c1)Nc1ncc(CCNc2ncnc3ccsc23)s1 [SNS-314]
IC50 ([1]; Homo sapiens, 96 h): < 0.001 nM | IC50 (Normal Lymphocytes; Homo sapiens, Lymphocyte, 96 h): 4000 ± 2000 nM | IC50 (B1 B-ALL cell line; Homo sapiens, 96 h): < 0.001 nM | IC50 (Aurora-C): 3 nM | IC50 (NB4 APML cell line; Homo sapiens, 96 h): 6 ± 4 nM | IC50 ([2]; Homo sapiens, 96 h): 8000 nM | IC50 (KOPN8 B-ALL cell line; Homo sapiens, KOPN-8, 96 h): < 0.001 nM | IC50 (HL-60 RA APML cell line; Homo sapiens, 96 h): < 0.001 nM | IC50 (MV4-11 AML cell line; Homo sapiens, 96 h): < 0.001 nM | IC50 (C1 B-ALL cell line; Homo sapiens, 96 h): < 0.001 nM | IC50 (Molt-3 T-ALL cell line; Homo sapiens, 96 h): < 0.001 nM | IC50 (Molm13 AML cell line; Homo sapiens, MOLM-13, 96 h): < 0.001 nM | IC50 (Bone Marrow Stroma; Homo sapiens, 96 h): > 10000 nM | IC50 (Nalm6 B-ALL cell line; Homo sapiens, NALM-6, 96 h): < 0.001 nM | IC50 ([3]; Homo sapiens, 96 h): 0.5 nM | IC50 ([4]; Homo sapiens, 96 h): < 0.001 nM | IC50 (SEM B-ALL cell line): < 0.001 nM | IC50 (HL-60 APML cell line; Homo sapiens, 96 h): 0.02 nM | IC50 (CEM T-ALL cell line; Homo sapiens, 96 h): < 0.001 nM | IC50 ([6]; Homo sapiens, 96 h): 4000 nM | IC50 (UOCB1 B-ALL cell line; Homo sapiens, UoC-B1, 96 h): < 0.001 nM | IC50 (TIB-202 AML cell line; Homo sapiens, 96 h): < 0.001 nM

COc1cc2c(Nc3ccc(NC(=O)c4ccccc4)cc3)ncnc2cc1OCCCN1CCOCC1 [ZM447439]
IC50 [1]: 20 nM | IC50 (Normal Lymphocytes): 6000 ± 800 nM | IC50 (B1 B-ALL cell line): 1000 ± 50 nM | IC50 (NB4 APML cell line): 4000 ± 2000 nM | IC50 [2]: 7000 nM | IC50 (KOPN8 B-ALL cell line): 100 ± 70 nM | IC50 (HL-60 RA APML cell line): 500 ± 300 nM | IC50 (MV4-11 AML cell line): 200 ± 100 nM | IC50 (C1 B-ALL cell line): 80 ± 20 nM | IC50 (Molt-3 T-ALL cell line): 90 ± 10 nM | IC50 (Molm13 AML cell line): 500 ± 300 nM | IC50 (Bone Marrow Stroma): 2000 ± 400 nM | IC50 (Nalm6 B-ALL cell line): 80 ± 4 nM | IC50 [3]: > 10000 nM | IC50 ([4]; primary sample, four days in culture, Alamar blue assay or automated microscopy, one complete study): 9 nM | IC50 values for the normal cells compared with IC50 values for the leukemia cell lines (potential therapeutic window) [5]: lower than the IC50 values for the normal cells, but not as pronounced | IC50 (HL-60 APML cell line): 1000 ± 100 nM | IC50 (CEM T-ALL cell line): 60 ± 30 nM | IC50 [6]: 10000 nM | IC50 (UOCB1 B-ALL cell line): 80 ± 20 nM | IC50 (TIB-202 AML cell line): 800 ± 100 nM
